Patent publication US20210100905A1, “APPLICATION OF COMPOUND OR TRADITIONAL CHINESE MEDICINE EXTRACT IN PREPARATION OF NUCLEIC ACID DELIVERY AGENT, AND RELATED PRODUCTS” (INSTITUTE OF BASIC MEDICAL SCIENCES CHINESE ACADEMY OF …, priority 2018, published 2021)

Tests used:
[1] = tested on: A549 cell (human lung adenocarcinoma cell); test: In vitro delivery of lipid nucleic acid mixture, RT-qPCR of intracellular small RNA; type: cell-based; settings: for delivery of HJT-sRNA-m7 double-stranded RNA into A549 cells (real-time PCR): single lipid prepared by boiling or reverse evaporation method, RNA 100 nM, FIGS. 76, 91, 96, 99, 104, 106, 107
Experimental: (§1) 3.1 NCI-N87 cell (gastric cancer cell), MRC-5 cell (lung fibroblast), A549 cell (lung cancer cell) were cultured to logarithmic growth phase, and then plated to a six-well plate at cell density of 1×10^6/2 mL medium/well; MRC-5 cell was cultured in Eagle's MEM medium (MEM, Gibco); A549 cell was cultured in Ham's F-12 medium (HyClone); NCI-N87 cell was cultured in RPMI-1640 medium (HyClone); followed by incubation overnight at 37° C., and the follow-up experiments were performed after the cells were attached to the walls.
(§2) 3.3 After co-incubation with the small RNA for 3 hours, the cells were washed 2-3 times with PBS. The cells were harvested with TRIzol lysis buffer, and the total RNA was extracted. The abundance of small RNA that entered cells was detected by RT-qPCR, and the localization of RNA was detected by fluorescence in situ hybridization; protocols of each detection method were as follows:
(§3) 1) The sRNA was reverse transcribed to cDNA: Reverse Transcription Kit (High-Capacity cDNA Reverse Transcription Kits, Applied Biosystems, cat. No. 4368813) was used to reverse transcribe sRNA into cDNA by stem-loop method, and the reverse transcription system was as follows: RNA template (150 ng/μl) 10 μl, 10×RT buffer, 2.0 μl, 25× dNTP Mix (100 mM) 0.8 μl, U6 RT stem-loop primer 2.0 μl, HJT-sRNA-RT-m7 stem-loop primer 2.0 μl, MultiScribe™ reverse transcriptase 1.0 μl, RNase inhibitor 1.0 μl, nuclease-free H2O 1.2 μl, loaded into a PCR reactor after brief centrifugation, the reaction conditions were as follows: (1) 25° C., 10 min; (2) 37° C., 120 min; (3) 85° C., 5 min; (4) 4° C., termination of the reaction. 20 μl RNase-free ddH2O was added to make up the final volume to 40 μl after the reaction. The stem-loop primer used in the reverse transcription process was synthesized by Beijing Tsingke Biotechnology Co., Ltd.
(§4) 2) Quantitative PCR amplification reaction: the qPCR reaction system has a total volume of 10 μl, containing: 5 μL 2×SYBR Green Master Mix, 0.5 μl forward primer ([…]), 0.5 μl reverse primer (10 μM), 1 μl cDNA by reverse transcription, 3 RNase-free dH2O. LightCycler 480 fluorescence quantitative PCR instrument was used, and the PCR reaction conditions were: 95° C. for 5 min for pre-denaturation, followed by PCR amplification cycle: (1) 95° C., 10 s; (2) 55° C., 10 s; (3) 72° C. , 20 s; a total of 40 cycles; 40° C. for 10 s in the end to cool down. Both the forward and reverse primers of the amplification reaction were designed and synthesized by Beijing Tsingke Biotechnology Co., Ltd.
(§5) 3) The relative expression level was calculated by 2-ΔCt method.
(§6) 100 μl lipid in diethyl ether solution was prepared, and grouped according to the lipid numbers shown in Table 1 (the lipid concentrations are shown in the table below). To the lipid solution was added 20 μl nucleic acid solution (HJT sRNA or siRNA) at the volume ratio of 5:1, and sonicated for after 3 min. The diethyl ether was removed by evaporation at 55° C., and then 100 μl DEPC water was added for hydration to give nucleic acid lipid mixture.
(§7) 100 μL of the nucleic acid solution (HJT sRNA or siRNA) was added to 2-5 μL of the lipid in chloroform (the concentration was shown in Table 1), mixed, and heated at 80-100° C. for 15-30 min to give nucleic acid lipid mixture.
(§8) 3.1.1 MRC-5 cell (pulmonary embryonic fibroblast), A549 cell (human lung adenocarcinoma cell), Caco-2 cell (human colon adenocarcinoma cell) (purchased from the Cell Resource Center of the Institute of Basic Medical Sciences, Chinese Academy of Medical Sciences) were cultured to logarithmic growth phase, then plated into 12-well plates at a cell density of 6×10^5/1 mL medium/well; MRC-5 and Caco-2 cells were cultured in Eagle's MEM medium (MEM, Gibco); A549 cells were cultured in Ham's F-12 medium (HyClone); followed by incubation overnight at 37° C., and the follow-up experiments were performed after the cells were attached to the walls. […]

[2] = tested on: MRC-5 cell (lung fibroblast); test: as above; type: cell-based; settings: single lipid; boiling method; FIGS. 78, 92, 103
Experimental: as §1, §2, §3, §4, §5, §6, §7, §8

[3] = In vivo delivery experiment of lipid nucleic acid mixture (Example 13); set-up: species or system C57 mice; settings: oral administration, 6 hours; for delivery effect into mouse blood and tissues (heart, spleen, kidney or intestine) compared with POPC: FIG. 117a-146b, 100 μg lipid : 1 nmol sRNA
Experimental: 1. Experiment animals: C57 mice, male, approximately 6 weeks old, 20-24g. Mice were raised in the SPF room of the Animal Center of the Institute of Basic Medical Sciences of Chinese Academy of Medical Sciences. The mice were fasted for 12 hours before intragastric administration.
2. Preparation of the mixture of lipid and small RNA: the prepration was conducted on the basis of a dose of 100 μg lipid: lnmol single stranded small RNA PGY-sRNA-26 per mouse as follows: lnmol of each sRNA was dissolved with 500 μl DEPC water in a glass tube, 100 μg corresponding lipid solution No.33, No.35,No.37, No.42, No.43, No.44, No.45, No.46, No.47, No.48, No.49, No.50, No.51, No.52, No.53, No.54, No.55, No.56, No.57, No.58, No.59, No.60, No.61, No.62, No.65, No.66, No.67, No.68, No.69 or No.70 (lipid chloroform solution with a concentration as shown in Table 1-1) was added, pipetted to mix thoroughly. The solution was heated in water bath at 90° C. for 15 min, naturally cooled down, and was administered via gavage.
1) Tissue sampling and extraction of RNA: 6 hours after gavage in mice, 500 μl of blood was taken from the eyeball, and was added 1.5 ml Trizol Reagent LS to thoroughly mix and lyse. Tissue sampling: the mouse was sarcrified by breaking its neck, and the thoracic and abdominal cavities of the mouse was exposed to remove the heart/whole spleen/two kidneys/intestine (5 cm of upper end), which was immediately added 2 ml Trizol Reagent (purchased from Invitrogen) and homogenized until complete lysis with a tissue homogenizer.
2) Reverse transcription of sRNA to cDNA: Reverse Transcription Kit (High-Capacity cDNA Reverse Transcription Kits, Applied Biosystems, cat. no. 4368813), was used to reverse transcribe the total RNA to cDNA, and the reverse system was as follows: template RNA (150 ng/μL) 10 μL, 10× RT buffer, 2.0 μL, 25× dNTP Mix (100 mM) 0.8 μL, random primers 2.0 μL, the Multi Scribe™ reverse Transcriptase 1.0 RNase inhibitor 1.0 μL, nuclease-free H2O 3.2 μL. After a brief centrifugation, the reaction was loaded in a PCR reactor. The reaction conditions were as follows: (1) 25° C., 10 min; (2) 37° C., 120 min; (3) 85° C., 5 min; (4) 4° C., termination of the reaction. After the reaction, 20 μL RNase-free ddH2O was added to make up the final volume to 40 μL.
LightCycler 480 fluorescence quantitative PCR instrument was used, and the PCR reaction conditions were: 95° C. , 5 min for pre-denaturation, followed by the PCR amplification cycle: (1) 95° C., 10 s; (2) 55° C., 10 s; (3) 72° C., 20 s; a total of 40 cycles; 40° C. for 10 s in the end to cool down. The forward primer and reverse primer of the amplification reaction were designed and synthesized by Beijing Qing Ke New Industrial Biotechnology Co., Ltd. (U6 F primer: GTGCAGGGTCCGAGGT (SEQ ID NO: 24), PGY-sRNA-26F primer: […] (SEQ ID NO: 34), reverse primer miR all rev: GTGCACGCTCCGAGGT (SEQ ID NO: 26)).
3) The relative expression amount was calculated by the 2-ΔCt method.
The data were represented in the form of mean±SEM. The parameter difference between the experimental group and the control group was evaluated by unpaired t test. The data were statistically analyzed by GraphPad Prism software, and P<0.05 was considered statistically significant.

[4] = 100 μg lipid : 1 nmol sRNA per mouse, 90° C. 15 min

Compound: CC/C=C\C/C=C\C/C=C\CCCCCCCC(=O)OC[C@@H](O)COP(=O)([O-])OCC[N+](C)(C)C [No. 37, (2-{[(2R)-2-hydroxy-3-[(9Z,12Z,15Z)-octadeca-9,12,15-trienoyloxy]propylphosphonato]oxy}ethyl) trimethylazanium]
- delivery of HJT-sRNA-m7 single-stranded RNA into A549 cells (real-time PCR) ([1]; single lipid, boiling method, FIGS. 78, 92, 103): delivered single-stranded RNA into A549 and MRC-5 cells
- delivery of HJT-sRNA-m7 single-stranded RNA into MRC-5 cells (real-time PCR) [2]: delivered single-stranded RNA into A549 and MRC-5 cells
- delivery effect into mouse blood and tissues (heart, spleen, kidney or intestine) compared with POPC [3]: significantly better than or equivalent to that of POPC
- delivery of small RNA (PGY-sRNA-26) into intestine [3, 4]: delivers small RNA

Compound: CCCCCC/C=C\CCCCCCCC(=O)OC[C@H](COP(=O)(O)OCCN(C)C)OC(=O)CCCCCCC/C=C\CCCCCC [No. 60, 1,2-dipalmitoleoyl-sn-glycero-3-phospho-ethanolamine-N,N-dimethyl]
- delivery of HJT-sRNA-m7 double-stranded RNA into A549 cells (real-time PCR) [1]: delivered double-stranded RNA into A549 cells
- delivery effect into mouse blood and tissues (heart, spleen, kidney or intestine) compared with POPC [3]: significantly better than or equivalent to that of POPC
- delivery of small RNA (PGY-sRNA-26) into intestine [3, 4]: delivers small RNA

Compound: CCCCCC/C=C\CCCCCCCC(=O)OC[C@H](COP(=O)(O)OCCN(C)C)OC(=O)CCCCCCC/C=C\CCCCCCCC [No. 62, 1-palmitoleoyl-2-oleoyl-sn-glycero-3-phospho-ethanolamine-N,N-dimethyl]
- delivery of HJT-sRNA-m7 double-stranded RNA into A549 cells (real-time PCR) [1]: delivered double-stranded RNA into A549 cells
- delivery effect into mouse blood and tissues (heart, spleen, kidney or intestine) compared with POPC [3]: significantly better than or equivalent to that of POPC
- delivery of small RNA (PGY-sRNA-26) into intestine [3, 4]: delivers small RNA

Compound: CC/C=C\C/C=C\C/C=C\C/C=C\C/C=C\CCCC(=O)OCC(COC(=O)CCCCCCC/C=C\C/C=C\CCCCC)OC(=O)CCCCCCC/C=C\C/C=C\CCCCC (centres unmarked) [No. 68, Triglyceride (20:5/18:2/ 18:2)]
- delivery effect into mouse blood and tissues (heart, spleen, kidney or intestine) compared with POPC [3]: significantly better than or equivalent to that of POPC
- delivery of small RNA (PGY-sRNA-26) into heart [3, 4]: delivers small RNA
- delivery of small RNA (PGY-sRNA-26) into intestine [3, 4]: delivers small RNA
- delivery of small RNA (PGY-sRNA-26) into spleen [3, 4]: delivers small RNA

Compound: Dilinolenin [No. 70]
- delivery effect into mouse blood and tissues (heart, spleen, kidney or intestine) compared with POPC [3]: significantly better than or equivalent to that of POPC
- delivery of small RNA (PGY-sRNA-26) into heart [3, 4]: delivers small RNA
- delivery of small RNA (PGY-sRNA-26) into spleen [3, 4]: delivers small RNA

Compound: Mono- docosadienoin [No. 42]
- delivery effect into mouse blood and tissues (heart, spleen, kidney or intestine) compared with POPC [3]: significantly better than or equivalent to that of POPC
- delivery of small RNA (PGY-sRNA-26) into kidney [3, 4]: delivers small RNA
- delivery of small RNA (PGY-sRNA-26) into spleen [3, 4]: delivers small RNA
